Paper PMC8160438, “A Novel Heptapeptide, GPPGPAG Transfers to the Brain, and Ameliorates Memory Dysfunction and Dendritic Atrophy in Alzheimer’s Disease Model Mice” (Frontiers in Pharmacology, 2021)
No end group written: not given here.

How the values were obtained:
[1] = Stability in lysate of mouse cerebral cortex; type: in vitro ADME
Method: For intraventricular administration, GPPGPAG was dissolved in artificial cerebrospinal fluid (ACSF; 130 mM NaCl, 24 mM NaHCO3, 3.5 mM KCl, 1.3 mM Na2HPO4, 2 mM CaCl2, 2 mM MgCl2 6H2O, and 10 mM glucose at pH 7.4) for use. GPPGPAG or ACSF was continuously injected for 28 days into the left ventricle (bregma: −0.2 mm, lateral: 1.0 mm, depth: −3.0 mm) using Alzet Osmotic Pump (1004, DURECT Corporation, CA, United States) and ALZET Brain Infusion Kit 3 (DURECT Corporation). Based on the amount of CSF produced which was 18 μL/h and the pump flow rate of 0.11 μL/h, the peptide in the pump was estimated to be diluted 164 times in the CSF to reach a final concentration 10 nM which was the effective dose in the cultured neuron experiments. Therefore 1.64 µM GPPGPAG was loaded into the pump. Stability of GPPGPAG in saline, mouse plasma and mouse cerebral cortex was confirmed by LC-MS quantification. GPPGPAG was mixed with saline or plasma at 5 μg/ml concentration. Otherwise, GPPGPAG was mixed with cortical lysate at 6.5 μg/g of cortex. After incubation at 37°C for 0, 10, 60, and 180 min, samples were dried up and served to LC-MS. Areas of MS peaks of GPPGPAG were quantified. […]
Stability of GPPGPAG in biological fluids.
(A) GPPGPAG was mixed with saline at 5 μg/ml concentration. (B) GPPGPAG was mixed with mouse plasma at 5 μg/ml concentration. […]

cortical neurons = assay: Entry into cultured cortical neurons, LC-MS of the lysate; type: in vitro ADME, mouse; settings: 1 mg/dish, 1.0 x 10^7 cells/10-cm dish, 0, 10, 20, 30, 60, 180, 360 min
Method: Intracellular amount of GPPGPAG after addition to cultured cortical neurons.
Mouse cortical neurons were seeded at 1.0 x 10^7 cells/10-cm dish. After 3 – 4 days culture, 1 mg/dish GPPGPAG was added. Incubation time was 0, 10,20, 30, 60, 180 and 360 min. After complete washing by PBS, cell lysate was prepared by M-PER solution. The lysate was ultrasonicated with methanol for 60 sec, and centrifuged (12000g) for 10 min at 4℃. Supernatant was dried up and served for […]
(1 picture or pasted object on this page, not shown here)

[2] = Plasma level after oral administration, LC-MS; type: in vivo; settings: 500 mg/animal, ddY mice, female, 8 weeks, 500 mg/mouse p.o. single dose, sampled at 10, 60, 180 min, n = 3, read-out: time of peak in the plasma (converted)
Method: Bioavailability and brain penetration of GPPGPAG was performed as previously described ([Yang et al., 2017]). GPPGPAG (500 mg) was dissolved in 750 μL of physiological saline. GPPGPAG or vehicle solution (physiological saline) was orally administered using an oral gavage to female ddY mice (8 weeks-old). The mice were euthanized at 10, 60, and 180 min after administration. Blood was collected and centrifuged at 10,000 g and 4°C for 10 min to yield plasma. Plasma aliquots (200 μL) were extracted with methanol, dried, sonicated, and resolubilized in 50% methanol (100 μL). The cerebral cortex was also collected after complete saline perfusion for removing blood. […]
FIGURE 6 Brain penetration of GPPGPAG after oral administration in mice GPPGPAG (500 mg/mouse, p. o.) or vehicle solution (physiological saline) was administered to mice (ddY, females, 8 weeks old, n = 3) as a single dose. […] (A) Total ion chromatogram (upper) and extracted ion current chromatogram (lower) of standard GPPGPAG (m/z = 552.2753) at 10 μg/ml for quantification of (B) and (C) data. […] In total ion chromatogram (upper) and extracted ion current chromatogram (lower) of m/z = 552.2753, no peaks were detected. […] In total ion chromatogram and extracted ion current chromatogram of m/z = 552.2753, peaks matching the retention time of GPPGPAG were detected. […]

- stability, amount remaining (MS peak area) ([1]; fresh lysate of mouse cerebral cortex, 6.5 μg/g of cortex, 37°C, 0, 10, 60, 180 min, LC-MS, n = 1): declined at 60 min after the incubation
- time retained in the brain after entering ([1]; inferred from stability in plasma and cortical lysate): ≤ 10 min
- Tmax [2]: 10 min
Substance: GPPGPAG [GPPGPAG]
- entry into the neurons (intracellular amount) (cortical neurons): detected from 10 min after treatment and gradually increased up to 360 min afterward
